From ChEMBL document CHEMBL5131435, “Boronic acid derivative activates pyruvate kinase M2 indispensable for redox metabolism in oral cancer cells” (Bioorg Med Chem Lett, 2022) come the findings set out here.

The structures appear in SMILES notation. The source made the active and inactive calls. The calls are words filed in the database; no cut-off is given here.

Common to all, as to assay type: cell-based
Assay [1] addresses T1, Pyruvate kinase PKM (Homo sapiens, UniProt P14618). Description: Activation of PKM2 in human CAL-27 cells measured after 3 hrs.
In assay [2] the target is T1, Pyruvate kinase PKM. In words: Activation of PKM2 in human CAL-27 cells assessed as increased in TPI1 activity at 52 nM measured after 3 hrs. To be noted: filed as activator.
Target sequence in this assay (P14618 2-531 limits assumed): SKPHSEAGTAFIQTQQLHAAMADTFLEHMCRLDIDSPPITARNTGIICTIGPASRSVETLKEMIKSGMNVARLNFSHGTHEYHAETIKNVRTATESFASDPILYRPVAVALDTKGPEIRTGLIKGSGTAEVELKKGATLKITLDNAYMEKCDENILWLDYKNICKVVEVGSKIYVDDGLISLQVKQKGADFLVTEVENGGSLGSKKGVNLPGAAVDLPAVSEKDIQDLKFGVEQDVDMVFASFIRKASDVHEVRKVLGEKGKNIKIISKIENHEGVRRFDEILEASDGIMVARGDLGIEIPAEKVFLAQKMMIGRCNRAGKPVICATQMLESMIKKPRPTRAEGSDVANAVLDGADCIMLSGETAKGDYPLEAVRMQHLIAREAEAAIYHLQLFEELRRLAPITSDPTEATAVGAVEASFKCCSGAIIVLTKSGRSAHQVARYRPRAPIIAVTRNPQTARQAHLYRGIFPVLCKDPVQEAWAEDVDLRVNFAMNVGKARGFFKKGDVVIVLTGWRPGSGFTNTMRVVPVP
In assay [3] the target is T1, Pyruvate kinase PKM. In words: Activation of PKM2 in human CAL-27 cells assessed as decrease in GSH level at 52 nM. To be noted: filed as activator.
Target sequence in this assay (P14618 2-531 limits assumed): as above
Assay [4] concerns the target T1, Pyruvate kinase PKM. In words: Activation of PKM2 in human CAL-27 cells assessed as increased in TPI1 activity at 12.5 to 50 nM measured after 3 hrs. To be noted: filed as activator, dose 12.5-50 nM.
Target sequence in this assay (P14618 2-531 limits assumed): as above
Assay [5] deals with T1, Pyruvate kinase PKM. Description: Activation of PKM2 in human CAL-27 cells assessed as decrease in GSH level at 12.5 to 50 nM. To be noted: filed as activator, dose 12.5-50 nM.
Target sequence in this assay (P14618 2-531 limits assumed): as above
The target in assay [6] is T1, Pyruvate kinase PKM. In words: Activation of PKM2 in human CAL-27 cells assessed as decrease in NADP+/NADPH ratio at 12.5 to 50 nM. To be noted: filed as activator, dose 12.5-50 nM.
Target sequence in this assay (P14618 2-531 limits assumed): as above
Assay [7] deals with T1, Pyruvate kinase PKM. Description: Activation of PKM2 in human CAL-27 cells assessed as decrease in lactate levels at 12.5 to 50 nM. Conditions: filed as activator, dose 12.5-50 nM.
Target sequence in this assay (P14618 2-531 limits assumed): as above

Consider `Nc1cccc(S(=O)(=O)N2CCCN(S(=O)(=O)c3ccc4c(c3)OCCO4)CC2)c1`, for which the AC50 (as a rule, the concentration at which the activity in the assay is half-maximal) in assay [1] came to 52 nM. The result in assay [2] and in assay [3] was Active.

`CCOC(=O)/C(=C\c1ccc(B(O)O)cc1)C(=O)c1sc(Nc2ccc(Cl)cc2)nc1N(C)C`: the AC50 in assay [1] worked out at 50 nM. Besides, the Activity result in assay [1] (filed as activator, dose 10-100 nM, DDE = dose-dependent effect) was “Dde”. Further, the outcome in assay [4], in assay [5], in assay [6] and in assay [7] was Active.
